Read-outs that look alike come from different tables or passages of the source.
Target: T1, sodium-proton exchanger of subtype 3 (NHE3) (Homo sapiens, UniProt P48764)
T1 construct: expressed in transfected cells
T1 sequence (P48764 26-834): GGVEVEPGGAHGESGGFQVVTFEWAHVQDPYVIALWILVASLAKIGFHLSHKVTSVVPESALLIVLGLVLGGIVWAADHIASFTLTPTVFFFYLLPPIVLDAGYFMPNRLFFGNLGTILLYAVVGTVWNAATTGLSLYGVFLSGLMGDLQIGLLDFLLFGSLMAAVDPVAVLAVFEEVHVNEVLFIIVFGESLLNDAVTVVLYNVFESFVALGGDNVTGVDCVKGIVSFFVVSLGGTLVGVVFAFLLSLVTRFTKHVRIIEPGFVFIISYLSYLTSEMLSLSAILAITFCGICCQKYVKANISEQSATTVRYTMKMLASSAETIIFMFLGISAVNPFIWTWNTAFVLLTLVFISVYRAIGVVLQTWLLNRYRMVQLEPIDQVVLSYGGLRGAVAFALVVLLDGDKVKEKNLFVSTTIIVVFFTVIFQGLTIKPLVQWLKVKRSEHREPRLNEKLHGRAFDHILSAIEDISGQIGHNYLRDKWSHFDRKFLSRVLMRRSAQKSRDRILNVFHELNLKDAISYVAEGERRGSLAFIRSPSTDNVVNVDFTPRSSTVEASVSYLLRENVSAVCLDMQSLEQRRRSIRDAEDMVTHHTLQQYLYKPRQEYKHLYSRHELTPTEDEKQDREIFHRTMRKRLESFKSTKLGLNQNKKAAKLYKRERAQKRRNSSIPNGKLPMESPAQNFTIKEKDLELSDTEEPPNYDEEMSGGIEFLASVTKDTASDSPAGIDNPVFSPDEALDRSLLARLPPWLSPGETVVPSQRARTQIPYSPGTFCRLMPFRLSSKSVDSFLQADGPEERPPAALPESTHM
Experiment: Recovery of intracellular pH (pHi) after acidification in LAP1 cells stably expressing NHE3 (BCECF fluorescence, FLIPR)
Assay type: cell-based
Details: LAP1 cells stably expressing NHE3, pH recovery after acidification, range 1 is % inhibition at 10 μM

[1] = read-out: Activity range (inhibitory effect on NHE3)
[2] = Activity range (inhibitory effect on NHE3)

| SMILES | IC50 [1] [nM] | also measured |
| --- | --- | --- |
| CC(=O)Nc1cccc(O[C@H]2c3ccccc3C[C@@H]2N2CCCC2)n1 (racemic) [Example 668, N-[6-(rac-trans-(1,2)-2-pyrrolidin-1-ylindan-1-yloxy)-pyridin-2-yl]acetamide] | < 1000 | – |
| CS(=O)(=O)c1ccc(O[C@H]2c3cccc(F)c3C[C@@H]2N2CCCC2)cc1 (racemic) [Example 285, 1-[rac-trans-(1,2)-4-fluoro-1-(4-methanesulfonylphenoxy)indan-2-yl]pyrrolidine] | 1000 to 10000 | – |
| N[C@@H]1CCCN([C@H]2CCc3ccccc3[C@@H]2Oc2ccc(-n3cncn3)cc2)C1 (racemic) [Example 61, (R)-1-[rac-trans-(1,2)-1-(4-[1,2,4]triazol-1-ylphenoxy)-1,2,3,4-tetrahydronaphthalen-2-yl]piperidin-3-ylamine] | 1000 to 10000 | – |
| Cc1c(Cl)ccc(O[C@@H]2c3ccccc3C[C@H]2N2C[C@H]3CNC[C@H]3C2)c1Cl (racemic) [Example 4, 2-[rac-trans-(1,2)-1-(2,4-dichloro-3-methylphenoxy)indan-2-yl]octahydropyrrolo[3,4-c]pyrrole] | 1000 to 10000 | – |
| CS(=O)(=O)c1nccn1-c1ccc(O[C@H]2c3cc(Cl)cc(Cl)c3C[C@@H]2N2CC[C@@H](O)C2)c(F)c1 [Example 739, (R)-1-{trans-(1S,2S)-4,6-Dichloro-1-[2-fluoro-4-(2-methanesulfonyl-imidazol-1-yl)-phenoxy]-indan-2-yl}-pyrrolidin-3-ol] | < 1000 | – |
| Nc1ccc2c(O[C@H]3c4ccccc4CC[C@@H]3N3CCC[C@@H](N)C3)cccc2c1 (racemic) [Example 80, (R)-1-[rac-trans-(1,2)-1-(6-aminonaphthalen-1-yloxy)-1,2,3,4-tetrahydronaphthalen-2-yl]piperidin-3-ylamine] | 1000 to 10000 | – |
| O=c1[nH]ccn1-c1cccc(O[C@@H]2c3ccccc3C[C@H]2N2CCCC2)c1 (racemic) [Example 254, 1-[3-(rac-trans-(1,2)-2-pyrrolidin-1-ylindan-1-yloxy)phenyl]-1,3-dihydroimidazol-2-one] | < 1000 | – |
| CC(=O)Nc1cccc(O[C@H]2c3ccccc3C[C@@H]2N2CCC[C@@H](NCCF)C2)c1 [Example 631, N-(3-{trans-(1S,2S)-2-[(R)-3-(2-fluoroethylamino)piperidin-1-yl]indan-1-yloxy}phenyl)-acetamide] | < 1000 | – |
| NS(=O)(=O)c1ccc(O[C@@H]2c3ccccc3C[C@H]2NCC2CCC2)c(F)c1 (racemic) [Example 718, 4-[rac-trans-(1,2)-2-(Cyclobutylmethyl-amino)-indan-1-yloxy]-3-fluoro-benzenesulfonamide] | < 1000 | – |
| c1ccc2c(c1)C[C@@H](N1C[C@H]3CNC[C@H]3C1)[C@@H]2Oc1ccc2ccncc2c1 (racemic) [Example 589, 7-[rac-trans-(1,2)-2-(Hexahydropyrrolo[3,4-c]pyrrol-2-yl)indan-1-yloxy]isoquinoline] | 1000 to 10000 | – |
| Cc1nnc(C)n1-c1ccc(O[C@H]2c3cc(Cl)cc(F)c3C[C@@H]2N2CC[C@@H](O)C2)c(F)c1 [Example 142, (R)-1-{trans-(1S,2S)-6-chloro-1-[4-(3,5-dimethyl-[1,2,4]triazol-4-yl)-2-fluorophenoxy]-4-fluoroindan-2-yl}pyrrolidin-3-ol] | < 1000 | – |
| CS(=O)(=O)c1ccc(O[C@H]2c3cc(Cl)cc(Cl)c3C[C@@H]2N2CC[C@@H](C#N)C2)cc1 [Example 105, (R)-1-[trans-(1S,2S)-4,6-dichloro-1-(4-methanesulfonylphenoxy)indan-2-yl]pyrrolidine-3-carbonitrile] | 1000 to 10000 | – |
| CCc1nnc(C(C)C)n1-c1ccc(O[C@H]2c3cc(Cl)cc(F)c3C[C@@H]2N2CC[C@@H](O)C2)cc1 [Example 722, (R)-1-{trans-(1S,2S)-6-Chloro-1-[4-(3-ethyl-5-isopropyl-[1,2,4]triazol-4-yl)-phenoxy]-4-fluoro-indan-2-yl}-pyrrolidin-3-ol] | 1000 to 10000 | – |
| Clc1cc(Cl)c2c(c1)[C@H](Oc1ccc(-n3cncn3)cc1)[C@@H](N1CCNCC1)C2 (racemic) [Example 276, 1-[rac-trans-(1,2)-4,6-dichloro-1-(4-[1,2,4]triazol-1-ylphenoxy)indan-2-yl]piperazine] | < 1000 | – |
| O=C1CCCN1c1ccc(Cl)c(O[C@H]2c3cc(Cl)cc(Cl)c3C[C@@H]2N2CC[C@@H](O)C2)c1 [Example 336, 1-{4-chloro-3-[(1S,2S)-4,6-dichloro-2-((R)-3-hydroxypyrrolidin-1-yl)indan-1-yloxy]phenyl}pyrrolidin-2-one] | < 1000 | – |
| CC(=O)Nc1cccc(O[C@H]2c3cccc(F)c3C[C@@H]2N2CCCC2)c1 (racemic) [Example 652, N-[3-(rac-trans-(1,2)-4-fluoro-2-pyrrolidin-1-ylindan-1-yloxy)phenyl]acetamide] | 1000 to 10000 | – |
| N[C@@H]1CCCN([C@H]2CCc3ccccc3[C@@H]2Oc2ccc(Br)cc2-c2cc[nH]n2)C1 (racemic) [Example 117, (R)-1-{rac-trans-(1,2)-1-[4-bromo-2-(1H-pyrazol-3-yl)phenoxy]-1,2,3,4-tetrahydronaphthalen-2-yl}piperidin-3-ylamine] | 1000 to 10000 | – |
| CN(C)S(=O)(=O)c1ccc(O[C@H]2c3ccccc3C[C@@H]2N2CCCC2)c(Cl)c1 (racemic) [Example 447, 3-chloro-N,N-dimethyl-4-(rac-trans-(1,2)-2-pyrrolidin-1-ylindan-1-yloxy)benzenesulfonamide] | – | IC50 [2]: < 1000 nM |
| CC(=O)Nc1cccc(O[C@@H]2c3ccccc3C[C@H]2N2CCSCC2)c1 (racemic) [Example 642, N-[3-(rac-trans-(1,2)-2-thiomorpholin-4-ylindan-1-yloxy)phenyl]acetamide] | 1000 to 10000 | – |
| NS(=O)(=O)c1ccc(O[C@H]2c3ccccc3C[C@@H]2N2CC[C@@H](CO)C2)cc1 (racemic) [Example 526, 4-[rac-trans-(1,2)-2-((R)-3-Hydroxymethylpyrrolidin-1-yl)indan-1-yloxy]benzenesulfonamide] | 1000 to 10000 | – |
| COc1cc(Cl)cc(O[C@H]2c3ccccc3CC[C@@H]2N2CCC[C@H](N)C2)c1 (racemic) [Example 163, (S)-1-[rac-trans-(1,2)-1-(3-chloro-5-methoxyphenoxy)-1,2,3,4-tetrahydronaphthalen-2-yl]piperidin-3-ylamine] | 1000 to 10000 | – |
| CS(=O)(=O)c1cc(Cl)c(O[C@H]2c3ccccc3C[C@@H]2N2CCCC2)c(Cl)c1 (racemic) [Example 264, 1-[rac-trans-(1,2)-1-(2,6-dichloro-4-methanesulfonylphenoxy)indan-2-yl]pyrrolidine] | 1000 to 10000 | – |
| NS(=O)(=O)c1ccc(O[C@H]2c3cc(Cl)cc(Cl)c3C[C@@H]2N2CCC(F)(F)CC2)cc1 [Example 484, 4-[(1S,2S)-4,6-dichloro-2-(4,4-difluoropiperidin-1-yl)indan-1-yloxy]benzenesulfonamide] | – | inhibition at 10 µM [1]: 20 to 50% |
| Cn1ccn(-c2ccc(F)c(O[C@H]3c4cc(Cl)cc(F)c4C[C@@H]3NC3CCCC3)c2)c1=O [Example 756, 1-[3-(trans-(1S,2S)-6-Chloro-2-cyclopentylamino-4-fluoro-indan-1-yloxy)-4-fluoro-phenyl]-3-methyl-1,3-dihydro-imidazol-2-one] | 1000 to 10000 | – |
| CN(C1CCNCC1)[C@@H]1Cc2ccccc2[C@H]1Oc1ccc(N2CCNCC2)cc1 (racemic) [Example 630, methyl-[rac-trans-(1,2)-1-(4-piperazin-1-ylphenoxy)indan-2-yl]piperidin-4-ylamine] | 1000 to 10000 | – |
| CN1CCN([C@H]2Cc3c(Cl)cc(Cl)cc3[C@@H]2Oc2ccc(-n3cncn3)cc2)CC1 [Example 296, 1-[trans-(1S,2S)-4,6-dichloro-1-(4-[1,2,4]triazol-1-ylphenoxy)indan-2-yl]-4-methylpiperazine] | – | inhibition at 10 µM [1]: 20 to 50% |
| O=C1CCCN1c1cccc(O[C@H]2c3ccccc3C[C@@H]2N2CCCC2)c1 (racemic) [Example 255, 1-[3-(rac-trans-(1,2)-2-pyrrolidin-1-ylindan-1-yloxy)phenyl]pyrrolidin-2-one] | – | IC50 [2]: 1000 to 10000 nM |
| NC(=O)c1ccc(O[C@@H]2c3ccccc3C[C@H]2N2CCC[C@@H](N)C2)cc1 (racemic) [Example 524, 4-[rac-trans-(1,2)-2-((R)-3-aminopiperidin-1-yl)indan-1-yloxy]benzamide] | < 1000 | – |
| Cc1cc(C)c2cccnc2c1O[C@H]1c2ccccc2CC[C@@H]1N1CCC[C@H](N)C1 (racemic) [Example 187, (S)-1-[rac-trans-(1,2)-1-(5,7-dimethylquinolin-8-yloxy)-1,2,3,4-tetrahydronaphthalen-2-yl]piperidin-3-ylamine] | – | inhibition at 10 µM [1]: 20 to 50% |
| COC(=O)c1ccc(O[C@H]2c3ccccc3C[C@@H]2N2CCCC2)cc1 (racemic) [Example 467, 4-(rac-trans-(1,2)-2-pyrrolidin-1-ylindan-1-yloxy)benzoic acid methyl ester] | 1000 to 10000 | – |

From patent publication US8822449B2, “Substituted aminoindanes and analogs thereof, and the pharmaceutical use thereof” (Sanofi, priority 2008, dated 2014)
